Test results taken from patent US4436751A, “Nitrobenzyl monates antibacterial compounds” (Beecham Group Limited, priority 1980, dated 1984).
Values after ≈ are worked out from the molar mass of the structure shown.

Columns and labels:
Format in all cases: cell-based
M. suipneumoniae HR(2) = test: Anti-mycoplasmal MIC in vitro, Friis broth agarose (Table 1); conditions: Mesomycoplasma hyopneumoniae, 144 h
[1] = system: M. suipneumoniae J2206/183b; test: as above; conditions: Mesomycoplasma hyopneumoniae, J2206/183B, 144 h
M. suipneumoniae MS 16 = test: as above; conditions: Mesomycoplasma hyopneumoniae, MS16, 144 h
M. suipneumoniae LABER = test: as above; conditions: Mesomycoplasma hyopneumoniae, 144 h
[2] = system: M. suipneumoniae NCTC 10110; test: as above; conditions: Mesomycoplasma hyopneumoniae, NCTC10110, 144 h
M. hyorhinis ATCC 23234 = test: as above; conditions: Mesomycoplasma hyorhinis, ATCC23234, 144 h
M. hyorhinis ATCC 25021 = test: as above; conditions: Mesomycoplasma hyorhinis, ATCC25021, 144 h
M. gallisepticum S6 = test: as above; conditions: Mycoplasmoides gallisepticum, S6, 144 h
Bord. bronchiseptica BO8 = test: Veterinary bacteria MIC, Diagnostic Sensitivity Test Agar (Table 2); conditions: Bordetella bronchiseptica, BO8, 18 h
Protocol: (§1) The values were determined using a two fold serial dilutions in Diagnostic Sensitivity Test Agar with an inoculum of 10^4 organisms and incubation for 18 hours at 37° C.

Bord. bronchiseptica BO9 = test: as above; conditions: Bordetella bronchiseptica, BO9, 18 h
Protocol: as §1

[3] = system: Corynebacterium pyogenes CY1; test: as above; conditions: Trueperella pyogenes, CY1, 18 h
Protocol: as §1

E. Coli E1 = test: as above; conditions: Escherichia coli, 18 h
Protocol: as §1

Past. haemolytica PA5 = test: as above; conditions: Mannheimia haemolytica, PA5, 18 h
Protocol: as §1

Past. multocida PA1 = test: as above; conditions: Pasteurella multocida, PA1, 18 h
Protocol: as §1

Past. multocida PA2 = test: as above; conditions: Pasteurella multocida, PA2, 18 h
Protocol: as §1

S. dublin S7 = test: as above; conditions: Salmonella enterica, S7, 18 h
Protocol: as §1

S. typhimurium S18 = test: as above; conditions: Salmonella enterica, TYPHIMURIUM, 18 h
Protocol: as §1

Staph. aureus 152 = test: as above; conditions: Staphylococcus aureus, 152, 18 h
Protocol: as §1

Staph. aureus Oxford = test: as above; conditions: Staphylococcus aureus, 18 h
Protocol: as §1

Strep. agalactiae SPA1 = test: as above; conditions: Streptococcus agalactiae, SPA1, 18 h
Protocol: as §1

Strep. dylgalactiae SPD1 = test: as above; conditions: 18 h
Protocol: as §1

[4] = system: Strep. suis (group D) SPS11; test: as above; conditions: Streptococcus suis, 18 h
Protocol: as §1

Strep. uberis SPO1 = test: as above; conditions: Streptococcus uberis, SPO1, 18 h
Protocol: as §1

E. coli ESS = test: Human bacteria MIC, nutrient agar with chocolated horse blood (Table 3); conditions: Escherichia coli, 18 h
Protocol: (§2) The values were determined by serial dilutions in nutrient agar with 5% chocolated horse blood after incubations for 18 hours at 37° C.

[5] = system: Neisseria catarrhalis 1502; test: as above; conditions: Neisseria, 1502, 18 h
Protocol: as §2

Strep. 2733-B = test: as above; conditions: 18 h
Protocol: as §2

Strep. 641848-C = test: as above; conditions: 18 h
Protocol: as §2

Strep. pneumoniae CN33 = test: as above; conditions: Streptococcus pneumoniae, CN33, 18 h
Protocol: as §2

| Compound | MIC (M. suipneumoniae HR(2)) | MIC [1] | MIC (M. suipneumoniae MS 16) | MIC (M. suipneumoniae LABER) | MIC [2] | MIC (M. hyorhinis ATCC 23234) | MIC (M. hyorhinis ATCC 25021) | MIC (M. gallisepticum S6) | MIC (Bord. bronchiseptica BO8) | MIC (Bord. bronchiseptica BO9) | MIC [3] | MIC (E. Coli E1) | MIC (Past. haemolytica PA5) | MIC (Past. multocida PA1) | MIC (Past. multocida PA2) | MIC (S. dublin S7) | MIC (S. typhimurium S18) | MIC (Staph. aureus 152) | MIC (Staph. aureus Oxford) | MIC (Strep. agalactiae SPA1) | further results |
| --- | --- | --- | --- | --- | --- | --- | --- | --- | --- | --- | --- | --- | --- | --- | --- | --- | --- | --- | --- | --- | --- |
| C/C(=C\C(=O)OCc1cc([N+](=O)[O-])cc([N+](=O)[O-])c1C)CC1OCC(CC2OC2C(C)C(C)O)C(O)C1O (centres unmarked) [Example 7, 3,5-dinitro-2-methylbenzyl monate A] | 0.25 µg/mL (≈ 0.464 µM) | 0.25 µg/mL (≈ 0.464 µM) | 0.1 µg/mL (≈ 0.186 µM) | 0.1 µg/mL (≈ 0.186 µM) | 0.25 µg/mL (≈ 0.464 µM) | 0.1 µg/mL (≈ 0.186 µM) | 0.1 µg/mL (≈ 0.186 µM) | 2.5 µg/mL (≈ 4.64 µM) | 40 µg/mL (≈ 74.3 µM) | 10 µg/mL (≈ 18.6 µM) | > 80 µg/mL | > 80 µg/mL | 5 µg/mL (≈ 9.28 µM) | 2.5 µg/mL (≈ 4.64 µM) | 1.25 µg/mL (≈ 2.32 µM) | > 80 µg/mL | > 80 µg/mL | 0.625 µg/mL (≈ 1.16 µM) | 0.625 µg/mL (≈ 1.16 µM) | 0.625 µg/mL (≈ 1.16 µM) | MIC (Strep. dylgalactiae SPD1): 0.625 µg/mL (≈ 1.16 µM); MIC [4]: 10 µg/mL (≈ 18.6 µM); MIC (Strep. uberis SPO1): 0.156 µg/mL (≈ 0.29 µM); MIC (E. coli ESS): 2.5 µg/mL (≈ 4.64 µM); MIC [5]: 0.25 µg/mL (≈ 0.464 µM); MIC (Strep. 2733-B): 2.5 µg/mL (≈ 4.64 µM); MIC (Strep. 641848-C): 1 µg/mL (≈ 1.86 µM); MIC (Strep. pneumoniae CN33): 0.5 µg/mL (≈ 0.928 µM) |
| C/C(=C\C(=O)OCc1cc([N+](=O)[O-])cc([N+](=O)[O-])c1)CC1OCC(CC2OC2C(C)C(C)O)C(O)C1O (centres unmarked) [Example 6, 3,5-dinitrobenzyl monate A] | 0.05 µg/mL (≈ 0.0953 µM) | 0.05 µg/mL (≈ 0.0953 µM) | 0.025 µg/mL (≈ 0.0477 µM) | 0.025 µg/mL (≈ 0.0477 µM) | 0.05 µg/mL (≈ 0.0953 µM) | 0.025 µg/mL (≈ 0.0477 µM) | 0.025 µg/mL (≈ 0.0477 µM) | 5 µg/mL (≈ 9.53 µM) | 40 µg/mL (≈ 76.3 µM) | 10 µg/mL (≈ 19.1 µM) | > 80 µg/mL | 80 µg/mL (≈ 153 µM) | 5 µg/mL (≈ 9.53 µM) | 1.25 µg/mL (≈ 2.38 µM) | 0.625 µg/mL (≈ 1.19 µM) | > 80 µg/mL | 80 µg/mL (≈ 153 µM) | 0.312 µg/mL (≈ 0.595 µM) | 0.312 µg/mL (≈ 0.595 µM) | 0.312 µg/mL (≈ 0.595 µM) | MIC (Strep. dylgalactiae SPD1): 0.312 µg/mL (≈ 0.595 µM); MIC [4]: 20 µg/mL (≈ 38.1 µM); MIC (Strep. uberis SPO1): 0.07 µg/mL (≈ 0.133 µM); MIC (E. coli ESS): 1 µg/mL (≈ 1.91 µM); MIC [5]: < 0.025 µg/mL; MIC (Strep. 2733-B): 0.5 µg/mL (≈ 0.953 µM); MIC (Strep. 641848-C): 0.5 µg/mL (≈ 0.953 µM); MIC (Strep. pneumoniae CN33): 0.25 µg/mL (≈ 0.477 µM) |
